This note sets out measurements from patent US5434186A, “Carboxylic acid leukotriene B4 antagonists” (Hoffmann-La Roche Inc., priority 1993, dated 1995).

By IC50 is commonly meant the concentration that gives 50% inhibition. As a reminder, the Ki is the dissociation constant of the complex between target and ligand, obtained from inhibition or displacement. A low value points to a stronger hold on the target.

Structures are written as SMILES. Read-outs that look alike come from different tables or passages of the source.

For assay [1], the system named is LTB4 mediated calcium fluxes in human neutrophils. Briefly: Calcium Flux Assay (inhibition of LTB4 mediated calcium fluxes in human neutrophils). Format: cell-based. The note with it: Neutrophil; Fura2 labelled human neutrophils, 2.4 nM LTB4. The method, then:
(§1) Human neutrophils are prepared from citrated or heparinized blood. The blood was diluted 1:1 with Hank's balanced salt solution (HBSS) minus calcium and magnesium and underlayed with 10 ml lymphocyte separation medium (Organon Teknika), followed by centrifugation at 500× g for 30 min., at room temperature. Supernatants are removed down to the red blood cell pellet. HBSS minus calcium and magnesium are added to give 25 ml. To this are added 25 ml 6% dextran in 0.85% NaCl. Samples are mixed and allowed to stand 20 min at room temperature. Supernatants are removed and centrifuged at 500× g for 5 min at 4° C. Pellets are resuspended with 20 ml 0.2% saline for 20 sec followed by the addition of 20 ml 1.6% saline. Samples are centrifuged at 500× g for 5 min at 4° C. The lysis is repeated and the cells (90-95% neutrophils) are resuspended at 2× 10^6 cell/ml in GEY's salt solution.
LTB4 induced changes in intracellular calcium concentration are measured using Fura2 labelled human neutrophils. Cells at a concentration of 2-5×10^6 /ml are labelled with 5 μM Fura2 for 30 minutes in Hank's balanced salt solution without calcium and magnesium. The cells are washed and resuspended at a final concentration of 1-2×10^7 cells/ml in Gey's solution. Calcium fluxes are initiated by the addition of 2.4 nM LTB4. Test compounds at appropriate concentrations are added to the cells just prior to the addition of LTB4. […] Fluorescence measurements are made in a Perkin Elmer model LS-5B spectrofluorimeter at a temperature setting of 37° C. Calcium concentrations are determined using the ratio method (ratio of cell fluorescence to media fluorescence).
When representative compounds of formula I of the invention were tested, the results set forth in Table H and expressed as inhibition of LTB4 mediated calcium fluxes in human neutrophils, were obtained.
(In general: Calcium assays in cells follow changes in intracellular calcium, usually with a dye or a luminescent sensor.)

For assay [2], the target named is T1, LTB4 Receptor (Homo sapiens, UniProt Q15722).
T1 construct: Isolated human neutrophils in Gey's salt solution; endogenous in cells; host or cells: human neutrophils isolated from blood (90-95% neutrophils)
Put plainly: LTB4 Receptor Binding Assay (inhibition of 3H-LTB4 binding, human neutrophils). The note with it: 0.5 nM 3H-LTB4, 45 minutes on ice, isolated human neutrophils. As for the experimental part: Binding assays can be performed in microtiter wells. Isolated human neutrophils in Gey's salt solution are incubated on ice for 45 minutes with 0.5 nM ^3 H-LTB4 in the presence or absence of test compounds. Assays are terminated by adding 12 ml ice cold 50 mM Tris (pH 7.4) followed by rapid filtration under vacuum through GF/C filters. Radioactivity is determined by scintillation counting. Non specific binding is defined as the binding not displaced by 100 fold excess of unlabelled LTB4. Specific binding is defined as the difference between total binding and non-specific binding. Non linear analysis of the binding data is performed using LIGAND (Munson and Rodbard, 1980). Ki (Inhibition Constant) values were determined using the Cheng-Prusoff relationship (Cheng and Prusoff, 1973).
as §1

Assay [3] relates to LTB4 -induced bronchoconstriction. Briefly: Guinea Pig Bronchoconstriction In Vivo (LTB4-induced). Also noted: species or system guinea pig (Hartley strain). The conditions noted are these: Cavia porcellus, iv, i.v. five minutes prior to LTB4 (1 μg/kg i.v.), read-out: ID50 (mg/kg), i.v., LTB4-induced bronchoconstriction. The method, then: Male guinea pigs (Hartley strain) weighing 300 to 500 g are anesthetized with urethane (2 g/kg) intraperitoneally and a polyethylene cannula is inserted into the jugular vein for drug administration. Tracheal pressure is recorded from a cannula inserted into the trachea and connected to a Gould P23ID pressure transducer. After surgical preparation of the animals, a period of time is allowed for pulmonary functions to stabilize. The test compound is administered intravenously five minutes prior to leukotriene B4 administration according to the following protocol: Animals are paralyzed with succinylcholine (1.2 mg/kg i.v.) and mechanically respirated (Harvard rodent respirator) at 40 breaths/minute and 2.5 cc tidal volume. Propranolol (0.1 mg/kg) is then administered intravenously one minute prior to leukotriene B4 administration. Animals are then challenged with an intermediate constrictory dose of leukotriene B4 (1 μg/kg) delivered intravenously.
The change (cm H2 O) between pre and peak ventilatory pressure readings is averaged for five control and five drug treated animals. The percent inhibition is calculated from the formula:
((Control-Drug Treated)/Control)×100
When representative compounds of formula I of the invention were utilized as the test compounds the following results were obtained: […]

Assay [4] has the same test system. The description is as above. On the set-up: species or system guinea pig (Hartley strain). The conditions noted are these: Cavia porcellus, po, read-out: ID50 (mg/kg), p.o., LTB4-induced bronchoconstriction.

T1 sequence (Q15722 whole entry): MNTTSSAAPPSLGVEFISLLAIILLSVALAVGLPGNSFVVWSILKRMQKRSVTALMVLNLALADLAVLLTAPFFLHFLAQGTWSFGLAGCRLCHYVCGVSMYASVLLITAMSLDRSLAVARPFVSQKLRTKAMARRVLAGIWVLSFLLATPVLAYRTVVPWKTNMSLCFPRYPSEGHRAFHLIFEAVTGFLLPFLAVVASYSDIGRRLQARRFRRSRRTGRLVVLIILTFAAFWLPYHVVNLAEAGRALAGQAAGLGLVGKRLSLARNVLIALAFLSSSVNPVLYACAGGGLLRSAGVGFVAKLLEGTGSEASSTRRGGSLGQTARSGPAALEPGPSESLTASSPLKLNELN

As to `CCCc1c(OCCCCCOc2cc3c(cc2C(C)=O)CCC(C(=O)O)O3)ccc2c1OCCC2=O` (racemic) [Example 11, rac-6-Acetyl-7-[5-[(3,4-dihydro-4-oxo-8-propyl-2H-1-benzopyran-7-yl)oxy]pentyloxy]-3,4-dihydro-2H-1-benzopyran-2-carboxylic Acid], the IC50 in assay [1] amounted to 300 nM.
Take `O=C(O)CCc1ccccc1OCCCCCOc1ccc2c(c1CCCc1ccccc1)OCCC2=O` [Example 195, 2-[[5-[[3,4-Dihydro-4-oxo-8-(3-phenylpropyl)-2H-1-benzopyran-7-yl]oxy]pentyl]oxy]benzenepropanoic Acid]: the Ki in assay [2] stood at 95 nM. In addition, the ED50 is 0.04 mg/kg in assay [3] and 5.8 mg/kg in assay [4].
The compound `CCCc1c(OCCCCOc2ccc(C(=O)c3cccc(C(=O)O)c3)cc2CCC(=O)O)ccc2c1OCCC2=O` [Example 24, 5-[(3-Carboxyphenyl)carbonyl]-2-[4-[(3,4-dihydro-4-oxo-8-propyl-2H-1-benzopyran-7-yl)oxy]butoxy]benzenepropanoic Acid] registered an inhibition constant (Ki) in assay [2] of 15 nM. In addition, the 50% inhibitory concentration (IC50) in assay [1] stood at 11 nM.
For `CCCc1c(OCCCCCOc2ccc(CCCCC(=O)O)cc2CCC(=O)O)ccc2c1OCCC2=O` [Example 215, 3-(2-Carboxyethyl)-4-[[5-[(3,4-dihydro-4-oxo-8-propyl-2H-1-benzopyran-7-yl)oxy]pentyl]oxy]benzenepentanoic Acid], in assay [2], the Ki came out at 3 nM. The ED50 was 0.24 mg/kg in assay [3] and 4.65 mg/kg in assay [4].
For `CCCc1c(OCCCCCCc2ccc(CCCCC(=O)O)cc2CCC(=O)O)ccc2c1OCCC2=O` [Example 219, 3-(2-Carboxyethyl)-4-[6-[(3,4-dihydro-4-oxo-8-propyl-2H-1-benzopyran-7-yl)oxy]hexyl]benzenepentanoic Acid], in that order: 1 nM, 0.08 mg/kg and more than 10 mg/kg.
For `CCCc1c(OCCCCCOc2ccccc2CCCC(=O)O)ccc2c1OCCC2=O` [Example 145, 2-[5-[(3,4-Dihydro-4-oxo-8-propyl-2H-1-benzopyran-7-yl)oxy]pentyloxy]benzenebutanoic Acid], in that order: 30 nM, 0.56 mg/kg and more than 10 mg/kg.
`CCCc1c(OCCCCCCOc2ccc(C(=O)c3cccc(C(=O)O)c3)cc2CCC(=O)O)ccc2c1OCCC2=O` [Example 22, 5-[(3-Carboxyphenyl)carbonyl]-2-[6-[(3,4-dihydro-4-oxo-8-propyl-2H-1-benzopyran-7-yl)oxy]hexyloxy]benzenepropanoic Acid] gave an inhibition constant Ki in assay [2] of 3 nM. Further, the IC50 in assay [1] amounted to 1 nM.
For the compound `O=C(O)CCc1ccccc1OCCCCCOc1ccc2c(c1Cc1ccccc1)OCCC2=O` [Example 73, 2-[5-[[3,4-Dihydro-4-oxo-8-(phenylmethyl)-2H-1-benzopyran-7-yl]oxy]pentyloxy]benzenepropanoic Acid], the affinity in assay [2], expressed as Ki, was 150 nM. In addition, the results for the ED50 in assay [3] and in assay [4] were 0.13 mg/kg and more than 10 mg/kg, respectively.
In assay [2], `CCCc1c(OCCCCCOc2ccccc2CCCCC(=O)O)ccc2c1OCCC2=O` [Example 147, 2-[5-[(3,4-Dihydro-4-oxo-8-propyl-2H-1-benzopyran-7-yl)oxy]pentyloxy]benzenepentanoic Acid] yielded a Ki of 200 nM. Besides, the ED50 in assay [3] came to 1.18 mg/kg.
As for `CCCc1c(OCCCCCOc2ccc(OCCCCC(=O)O)cc2CCC(=O)O)ccc2c1OCCC2=O` [Example 58, 5-(4-Carboxybutoxy)-2-[5-[(3,4-dihydro-4-oxo-8-propyl-2H-1-benzopyran-7-yl)oxy]pentyloxy]benzenepropanoic Acid Hemihydrate], in assay [2], the Ki stood at 4 nM. For the same compound, the ED50 in assay [3] is 5.09 mg/kg.
The compound `CCCCCc1c(OCCCCCOc2ccccc2CCC(=O)O)ccc2c1OCCC2=O` [Example 118, 2-[5-[(3,4-Dihydro-4-oxo-8-pentyl-2H-1-benzopyran-7-yl)oxy]pentyloxy]benzenepropanoic Acid] came in with a Ki in assay [2] of 607 nM. Besides, the values for the ED50 in assay [3] and in assay [4] were 0.18 mg/kg and more than 10 mg/kg, respectively.
`CCCc1c(OCCCCCOc2ccc3cc(OCC(=O)O)ccc3c2CCC(=O)O)ccc2c1OCCC2=O` [Example 231, 6-(Carboxymethoxy)-2-[[5-[(3,4-dihydro-4-oxo-8-propyl-2H-1-benzopyran-7-yl)oxy]pentyl]oxy]-1-naphthalenepropanoic Acid]: affinity in assay [2] was put at a Ki of 0.8 nM. Besides, the ED50 in assay [3] came to 1.36 mg/kg.
For `CCCc1c(OCCCCCOc2ccc3nc(CCC(=O)O)ccc3c2CCC(=O)O)ccc2c1OCCC2=O` [Example 238, 6-[[5-[(3,4-Dihydro-4-oxo-8-propyl-2H-1-benzopyran-7-yl)oxy]pentyl]oxy]-2,5-quinolinedipropanoic Acid], in that order: 2 nM and 1.24 mg/kg.
In assay [2], `CCCc1c(OCCCCCOc2ccc3ccc(OCC(=O)O)cc3c2CCC(=O)O)ccc2c1OCCC2=O` [Example 226, 7-(Carboxymethoxy)-2-[[5-[(3,4-dihydro-4-oxo-8-propyl-2H-1-benzopyran-7-yl)oxy]pentyl]oxy]-1-naphthalenepropanoic Acid] registered an inhibition constant Ki of 1 nM. Besides, in assay [3], the ED50 was determined as 4.4 mg/kg.
As to `CCCc1c(OCCCCCCc2cccc(OCCCC(C)(C)C(=O)O)c2CCC(=O)O)ccc2c1OCCC2=O` [Example 174, 2-[(4-Carboxy-4-methylpentyl)oxy]-6-[6-[(3,4-dihydro-4-oxo-8-propyl-2H-1-benzopyran-7-yl)oxy]hexyl]benzenepropanoic Acid], affinity in assay [2] was put at a Ki of 1 nM. Further, the values for the ED50 in assay [3] and in assay [4] were 0.22 mg/kg and 1.1 mg/kg, respectively.
In turn, `CCCc1c(OCCCCCOc2cccc(CCC(=O)O)c2)ccc2c1OCCC2=O` [Example 68, 3-[5-[(3,4-Dihydro-4-oxo-8-propyl-2H-1-benzopyran-7-yl)oxy]pentyloxy]benzenepropanoic Acid] returned an inhibition constant Ki in assay [2] of 60 nM. In addition, in assay [3], the ED50 worked out at 3.56 mg/kg.
Regarding `CCCc1c(OCCCCCCc2ccccc2CCC(=O)O)ccc2c1OCCC2=O` [Example 37, 2-[6-[(3,4-Dihydro-4-oxo-8-propyl-2H-1-benzopyran-7-yl)oxy]hexyl]benzenepropanoic Acid], the results for the ED50 in assay [3] and in assay [4] were 0.45 mg/kg and more than 10 mg/kg, respectively.
In turn, `CCCc1c(OCCCCCCc2ccc(C(=O)CCCC(=O)O)cc2CCC(=O)O)ccc2c1OCCC2=O` [Example 211, 3-(2-Carboxyethyl)-4-[6-[(3,4-dihydro-4-oxo-8-propyl-2H-1-benzopyran-7-yl)oxy]hexyl]-δ-oxobenzenepentanoic Acid] returned an inhibition constant Ki in assay [2] of 0.8 nM. Also, the ED50 in assay [3] is 2.39 mg/kg.
For `O=C(O)CCCCCOc1cccc(CCCCCCOc2ccc3c(c2CCCc2ccccc2)OCCC3=O)c1CCC(=O)O` [Example 200, 2-[(5-Carboxypentyl)oxy]-6-[6-[[3,4-dihydro-4-oxo-8-(3-phenylpropyl)-2H-1-benzopyran-7-yl]oxy]hexyl]benzenepropanoic Acid], the Ki in assay [2] turned out to be 1 nM. In addition, the ED50 in assay [3] is 0.06 mg/kg; in assay [4], 0.16 mg/kg.
In assay [2], `CCCc1c(OCCCCCOc2ccc(C(=O)c3ccc(C(=O)O)cc3)cc2CCC(=O)O)ccc2c1OCCC2=O` [Example 85, 5-[(4-Carboxyphenyl)carbonyl]-2-[5-[(3,4-dihydro-4-oxo-8-propyl-2H-1-benzopyran-7-yl)oxy]pentyloxy]benzenepropanoic Acid] displayed a Ki of 3 nM. Also, the ED50 in assay [3] was found to be 6.23 mg/kg.
